The source of these data is paper PMC9923724, “Half sandwich-type osmium, ruthenium, iridium and rhodium complexes with bidentate glycosyl heterocyclic ligands induce cytostasis in platinum-resistant ovarian cancer cells and bacteriostasis in Gram-positive multiresistant bacteria” (Frontiers in Chemistry, 2023).

In data set [1] the test system is 4HNE expression in Enterococcus faecalis reference strain. Kind of data set: Western blot for 4HNE in Enterococcus faecalis reference strain. The data set is classed as cell-based. The conditions noted are these: at MIC (Ru-7 5 μM, Os-7 10 µM), 15 min, 30 min, 1 h; band ∼120 kDa. As to the method: (§1) The MIC values of the complexes were determined against the reference strains of S. aureus (ATCC29213) and E. faecalis. (ATCC29212) and against clinical VRE and MRSA isolates by microdilution assays (repeated at least twice in duplicates) as described in Materials and Methods. The numbers indicate how many isolates were susceptible to the compound out of those tested; i.e., 1/6 stands for 1 isolate was susceptible out of 6 tested. […] Cells were harvested and lysed. Cellular proteins was separated on a 10% SDS-PAGE gel and were blotted. Blots were probed with 4HNE antibody (top blot), the lower blot was stained with amido black. Arrows point at band of interest. Experiments were repeated three times and a representative blot is shown. On the blots brightness and contrast were adjusted. […]
(§2) SDS-polyacrylamide gel electrophoresis and Western blot was performed as in ([Márton et al., 2018]) using an antibody against 4HNE (Abcam (ab46545) 1:1000) that was detected using a corresponding peroxidase-conjugated secondary antibody (1:10000, Cell Signaling Technology, Inc., Beverly, MA, United States). […] ECL and amido black pictures were captured using the ChemiDoc Touch Imaging System (Bio-Rad Laboratories, Inc., Hercules, California, United States) and the pictures were evaluated using the Image Lab software (Bio-Rad).

In data set [2] the test system is Enterococcus faecalis (ATCC29212). Kind of data set: Broth microdilution MIC, Enterococcus faecalis reference strain. The data set is classed as cell-based. The note with it: Enterococcus faecalis ATCC29212, 24 h. On the procedure:
(§3) The MIC values of the complexes were determined against the reference strains of S. aureus (ATCC29213) and E. faecalis. (ATCC29212) and against clinical VRE and MRSA isolates by microdilution assays (repeated at least twice in duplicates) as described in Materials and Methods. The numbers indicate how many isolates were susceptible to the compound out of those tested; i.e., 1/6 stands for 1 isolate was susceptible out of 6 tested. […] Cells were harvested and lysed. Cellular proteins was separated on a 10% SDS-PAGE gel and were blotted. Blots were probed with 4HNE antibody (top blot), the lower blot was stained with amido black. Arrows point at band of interest. Experiments were repeated three times and a representative blot is shown. On the blots brightness and contrast were adjusted. […] Each was matched to a substance and strain by its position over the x-axis categories. / Ir-7: ND and 0/3 (left plot) and ND and 0/6 (right plot) were matched to E. faecalis/VRE and S. aureus/MRSA by position only.
(§4) We used the reference strains of Staphylococcus aureus (ATCC29213), and Enterococcus faecalis (ATCC29212) that were purchased from ATCC (Manassas, VA, United States).
(§5) Microdilution experiments were performed according to the standards of EUCAST ([EUCAST, 2021]). […] The inoculated plates were incubated for 24 h at 37°C then were assessed visually. […] All experiments were performed at least twice in duplicates.
A general note: Broth dilution looks for growth in wells or tubes with falling amounts of substance.

Data set [3] has as its system Staphylococcus aureus (ATCC29213). Nature of the data set: Broth microdilution MIC, Staphylococcus aureus reference strain. Type of data set: cell-based. The conditions noted are these: Staphylococcus aureus ATCC29213, 24 h. On the procedure:
as §3, §4, §5

Data set [4] concerns 4HNE formation in Staphylococcus aureus reference strain. Nature of the data set: Western blot for 4HNE in Staphylococcus aureus reference strain. The data set is classed as cell-based. The conditions noted are these: at MIC (Ru-7 10 μM, Os-7 20 µM), 15 min, 30 min, 1 h; band ∼50 kDa. As to the method: as §1, §2
On the technique in general: Immunoblotting shows a protein as a band on a membrane.

Data set [5] is described as follows: Determination of the distribution coefficients (logD). The conditions noted are these: distribution coefficient. Type of data set: physicochemical.

A word on the LogD: it is lipophilicity at a set pH, counting ionised and neutral species. Lower therefore signals a more hydrophilic compound.

As for `Cc1ccc(C(C)C)cc1.F[P-](F)(F)(F)(F)F.O=C(OCC1OC(n2cc(-c3ccc4ccccc4n3)nn2)C(OC(=O)c2ccccc2)C(OC(=O)c2ccccc2)C1OC(=O)c1ccccc1)c1ccccc1.[Cl][Ru+]` (mixture of isomers) [Ru-7], the “4HNE expression in Enterococcus faecalis reference strain” value in data set [1] was “induced 4HNE expression”. Moreover, the “MIC, Reference E. faecalis” value in data set [2] is 5 µM. Further, in data set [3], the “MIC, Reference S. aureus” value amounted to 10 µM. The “4HNE formation in Staphylococcus aureus reference strain” value in data set [4] is given as “induced 4HNE formation”.
For the compound `Cc1ccc(C(C)C)cc1.F[P-](F)(F)(F)(F)F.O=C(OCC1OC(n2cc(-c3ccc4ccccc4n3)nn2)C(OC(=O)c2ccccc2)C(OC(=O)c2ccccc2)C1OC(=O)c1ccccc1)c1ccccc1.[Cl][Os+]` (mixture of isomers) [Os-7], the “4HNE expression in Enterococcus faecalis reference strain” value in data set [1] is recorded as “induced 4HNE expression”. Also, the “MIC, Reference E. faecalis” value in data set [2] is 10 µM. Also, the “MIC, Reference S. aureus” value in data set [3] came to 20 µM. Besides, in data set [5], the LogD stood at 2.33. Also, the “4HNE formation in Staphylococcus aureus reference strain” value in data set [4] was “induced 4HNE formation”.
